Results published in the NIST ThermoML archive (doi:10.1021/acs.jced.8b01095).

Experiment: xn = mol fraction of the nth substance listed
Details: Liquid; for viscosity: 2 kPa, Falling or rolling sphere viscometry; for speed of sound / mass density: 100 kPa; for speed of sound: Single path-length method; for mass density: Vibrating tube method

CNc1ccccc1 [N-methylaniline] + CCCC[n+]1ccn(C)c1.O=S(=O)([N-]S(=O)(=O)C(F)(F)F)C(F)(F)F
Details	mass density [kg/m3]	speed of sound [m/s]	viscosity [mPa·s]
298.15 K, x2 = 0	982.7	1564.5	1.94
298.15 K, x2 = 0.0958	1085.92	1478.4	3.78
298.15 K, x2 = 0.2004	1171.17	1416.5	7.41
298.15 K, x2 = 0.3061	1237.44	1372.1	10.89
298.15 K, x2 = 0.4074	1287.31	1337.5	15.38
298.15 K, x2 = 0.4939	1321.9	1312.1	19.38
298.15 K, x2 = 0.5905	1352.65	1286.8	23.54
298.15 K, x2 = 0.6834	1377.01	1267.9	28.71
298.15 K, x2 = 0.7988	1402.4	1250.4	35.25
298.15 K, x2 = 0.8751	1415.81	1241	40.87
303.15 K, x2 = 0	978.59	1546.1	1.73
303.15 K, x2 = 0.0958	1081.63	1462.9	3.32
303.15 K, x2 = 0.2004	1166.89	1402.2	6.34
303.15 K, x2 = 0.3061	1233.05	1358.7	9.2
303.15 K, x2 = 0.4074	1282.85	1324.7	12.87
303.15 K, x2 = 0.4939	1317.38	1299.7	16.31
303.15 K, x2 = 0.5905	1348.07	1275.1	19.68
303.15 K, x2 = 0.6834	1372.38	1256.5	23.79
303.15 K, x2 = 0.7988	1397.7	1239.1	29.03
303.15 K, x2 = 0.8751	1411.09	1229.8	33.45
308.15 K, x2 = 0	974.47	1528.3	1.55
308.15 K, x2 = 0.0958	1077.34	1447.9	2.93
308.15 K, x2 = 0.2004	1162.61	1388	5.47
308.15 K, x2 = 0.3061	1228.67	1345.4	7.87
308.15 K, x2 = 0.4074	1278.4	1312.1	10.91
308.15 K, x2 = 0.4939	1312.87	1287.6	13.85
308.15 K, x2 = 0.5905	1343.49	1263.3	16.65
308.15 K, x2 = 0.6834	1367.74	1245	20
308.15 K, x2 = 0.7988	1393.02	1228.1	24.27
308.15 K, x2 = 0.8751	1406.37	1218.9	27.84
313.15 K, x2 = 0	970.36	1511.5	1.4
313.15 K, x2 = 0.0958	1073.05	1433.7	2.61
313.15 K, x2 = 0.2004	1158.33	1373.8	4.76
313.15 K, x2 = 0.3061	1224.28	1332.5	6.8
313.15 K, x2 = 0.4074	1273.93	1299.9	9.36
313.15 K, x2 = 0.4939	1308.35	1275.7	11.86
313.15 K, x2 = 0.5905	1338.91	1251.8	14.24
313.15 K, x2 = 0.6834	1363.11	1233.8	17.04
313.15 K, x2 = 0.7988	1388.31	1217.1	20.57
313.15 K, x2 = 0.8751	1401.64	1208.1	23.51
318.15 K, x2 = 0	966.24	1492.8	1.27
318.15 K, x2 = 0.0958	1068.75	1417.6	2.34
318.15 K, x2 = 0.2004	1154.04	1359.9	4.17
318.15 K, x2 = 0.3061	1219.9	1319.4	5.94
318.15 K, x2 = 0.4074	1269.47	1287.4	8.12
318.15 K, x2 = 0.4939	1303.83	1263.6	10.24
318.15 K, x2 = 0.5905	1334.33	1240	12.3
318.15 K, x2 = 0.6834	1358.47	1222.4	14.69
318.15 K, x2 = 0.7988	1383.61	1206.1	17.64
318.15 K, x2 = 0.8751	1396.92	1197.1	20.12
323.15 K, x2 = 0	962.13	1476.2	1.16
323.15 K, x2 = 0.0958	1064.46	1403.2	2.11
323.15 K, x2 = 0.2004	1149.76	1346.5	3.68
323.15 K, x2 = 0.3061	1215.52	1306.7	5.23
323.15 K, x2 = 0.4074	1265	1275.5	7.1
323.15 K, x2 = 0.4939	1299.32	1252	8.9
323.15 K, x2 = 0.5905	1329.74	1228.6	10.72
323.15 K, x2 = 0.6834	1353.84	1211.5	12.79
323.15 K, x2 = 0.7988	1378.91	1195.2	15.29
323.15 K, x2 = 0.8751	1392.22	1186.4	17.41

CNc1ccccc1 [N-methylaniline] + CCCCn1cc[n+](C)c1.F[P-](F)(F)(F)(F)F
Details	mass density [kg/m3]	speed of sound [m/s]	viscosity [mPa·s]
298.15 K, x2 = 0	982.7	1564.5	1.94
298.15 K, x2 = 0.1076	1064.1	1558.7	5.42
298.15 K, x2 = 0.2146	1128.52	1549.8	11.47
298.15 K, x2 = 0.3053	1174.31	1538.2	22.49
298.15 K, x2 = 0.3985	1214.23	1516.1	37.19
298.15 K, x2 = 0.4805	1243.22	1497.1	53.52
298.15 K, x2 = 0.5766	1272.38	1481.9	71.45
298.15 K, x2 = 0.6793	1299.48	1468.8	95.21
298.15 K, x2 = 0.7871	1325.04	1457.9	126.78
298.15 K, x2 = 0.9009	1348.44	1447.2	187.23
303.15 K, x2 = 0	978.59	1546.1	1.73
303.15 K, x2 = 0.1076	1060.11	1542.2	4.31
303.15 K, x2 = 0.2146	1124.54	1534.3	9.24
303.15 K, x2 = 0.3053	1170.33	1523.4	16.65
303.15 K, x2 = 0.3985	1210.27	1502.3	27.2
303.15 K, x2 = 0.4805	1239.24	1484.1	39.53
303.15 K, x2 = 0.5766	1268.37	1469.4	53.54
303.15 K, x2 = 0.6793	1295.43	1456.7	74.21
303.15 K, x2 = 0.7871	1320.94	1445.9	96.09
303.15 K, x2 = 0.9009	1344.33	1435.4	140.54
308.15 K, x2 = 0	974.47	1528.3	1.55
308.15 K, x2 = 0.1076	1056.11	1525.9	3.52
308.15 K, x2 = 0.2146	1120.57	1518.9	7.54
308.15 K, x2 = 0.3053	1166.34	1508.8	12.57
308.15 K, x2 = 0.3985	1206.32	1488.9	20.33
308.15 K, x2 = 0.4805	1235.26	1471.1	29.79
308.15 K, x2 = 0.5766	1264.35	1456.7	40.88
308.15 K, x2 = 0.6793	1291.38	1444.4	53.97
308.15 K, x2 = 0.7871	1316.84	1433.9	72.45
308.15 K, x2 = 0.9009	1340.21	1423.5	107.54
313.15 K, x2 = 0	970.36	1511.5	1.4
313.15 K, x2 = 0.1076	1052.12	1506.7	2.95
313.15 K, x2 = 0.2146	1116.59	1500.8	6.01
313.15 K, x2 = 0.3053	1162.35	1492.6	9.66
313.15 K, x2 = 0.3985	1202.36	1475.5	15.49
313.15 K, x2 = 0.4805	1231.27	1458	22.87
313.15 K, x2 = 0.5766	1260.34	1444.2	31.76
313.15 K, x2 = 0.6793	1287.33	1432.3	42.71
313.15 K, x2 = 0.7871	1312.75	1422.2	57.32
313.15 K, x2 = 0.9009	1336.1	1411.9	83.73
318.15 K, x2 = 0	966.24	1492.8	1.27
318.15 K, x2 = 0.1076	1048.13	1491.1	2.5
318.15 K, x2 = 0.2146	1112.61	1488.2	5
318.15 K, x2 = 0.3053	1158.36	1479.8	7.84
318.15 K, x2 = 0.3985	1198.4	1462.1	12.02
318.15 K, x2 = 0.4805	1227.29	1445.1	17.73
318.15 K, x2 = 0.5766	1256.33	1431.8	25.05
318.15 K, x2 = 0.6793	1283.28	1420.3	34.26
318.15 K, x2 = 0.7871	1308.65	1410.4	46.02
318.15 K, x2 = 0.9009	1331.99	1400.5	66.23
323.15 K, x2 = 0	962.13	1476.2	1.16
323.15 K, x2 = 0.1076	1044.13	1473.9	2.07
323.15 K, x2 = 0.2146	1108.64	1471.7	4.02
323.15 K, x2 = 0.3053	1154.38	1466.1	6.32
323.15 K, x2 = 0.3985	1194.44	1448.8	9.48
323.15 K, x2 = 0.4805	1223.3	1432.3	13.62
323.15 K, x2 = 0.5766	1252.31	1419.6	19.75
323.15 K, x2 = 0.6793	1279.23	1408.4	27.82
323.15 K, x2 = 0.7871	1304.56	1398.9	37.45
323.15 K, x2 = 0.9009	1327.88	1389.2	53.14
